Residues, ends and D or L forms follow the SMILES beside them.
Columns and labels:
[1] = Permeability coefficient through artificial membrane in presence of unstirred water layer by PAMPA
[2] = Partition coefficient, log P of the compound; conditions: octanol/water
[3] = Permeability coefficient through artificial membrane in presence of stirred water layer
[4] = system: Caco-2; assay: Permeability from apical to basolateral side of the Caco-2 cell membrane; format: ADME, cell-based; conditions: human
[5] = system: Caco-2; assay: Permeability from basolateral to apical side of the Caco-2 cell membrane; format: ADME, cell-based; conditions: human

| logP [2] | LogP app ([3]; PAMPA) | SMILES | LogP app [1] | Papp [1] [×10⁻⁶ cm/s] | Papp ([3]; PAMPA) [×10⁻⁶ cm/s] | LogP app ([3]; artificial membrane) | LogP app [4] | LogP app [5] |
| --- | --- | --- | --- | --- | --- | --- | --- | --- |
| 2.04 |  | O=C1N[C@@H](Cc2c[nH]c3ccccc23)C(=O)N[C@H]1Cc1c[nH]c2ccccc12 | -5.04 |  |  |  |  |  |
| 0.07 |  | O=C1CNC(=O)[C@H](Cc2c[nH]c3ccccc23)N1 | -6.02 |  |  |  |  |  |
| 0.3 |  | NC(=O)[C@@H](N)Cc1c[nH]c2ccccc12 | -5.56 |  |  |  |  |  |
| 0.73 |  | CC(=O)N[C@@H](Cc1c[nH]c2ccccc12)C(=O)N[C@H](C(N)=O)C(C)C | -6.18 |  |  |  |  |  |
| 3.3 |  | CCc1ccc(C)nc1 | -5.55 | 2.85 | 12.9 | -4.89 |  |  |
| 0.65 |  | CC(=O)N[C@H](Cc1c[nH]c2ccccc12)C(=O)N[C@H](C(N)=O)C(C)C | -6.14 |  |  |  |  |  |
|  |  | Cc1ccc(O)c(C)c1 | -4.61 | 24.3 | 263 | -3.58 |  |  |
|  |  | O=C(O)c1c[nH]c2ccccc12 | -6.1 |  |  |  |  |  |
|  |  | Nc1ccccc1Cl | -4.48 | 33.1 | 246 | -3.63 |  |  |
| 0.32 |  | CC(=O)N[C@@H](Cc1ccc(O)cc1)C(=O)N[C@@H](CC(C)C)C(N)=O (Ac-Tyr-Leu-NH2) | -6.54 |  |  |  |  |  |
| 0.54 |  | CC(=O)N[C@@H](Cc1ccc(O)cc1)C(=O)N[C@@H](Cc1ccccc1)C(N)=O (Ac-Tyr-Phe-NH2) |  |  |  |  |  |  |
| -0.48 |  | NCC(=O)N[C@@H](Cc1c[nH]c2ccccc12)C(N)=O (H-Gly-Trp-NH2) | -6.38 |  |  |  |  |  |
| 1.38 |  | NC(=O)[C@H](Cc1c[nH]c2ccccc12)NC(=O)[C@@H](N)Cc1ccccc1 (H-Phe-Trp-NH2) | -5.22 |  |  |  |  |  |
| 0.4 |  | CC(C)[C@H](NC(=O)[C@H](C)NC(=O)[C@@H](N)Cc1c[nH]c2ccccc12)C(N)=O (H-Trp-Ala-Val-NH2) | -6.62 |  |  |  |  |  |
|  |  | Oc1ccc(Cl)cc1Cl [2,4-DICHLOROPHENOL] | -4.93 | 11.9 | 127 | -3.9 |  |  |
|  |  | Oc1ccccc1Cl [2-CHLOROPHENOL] | -4.3 | 50 | 15.2 | -4.82 |  |  |
|  |  | Nc1ccccc1[N+](=O)[O-] [2-NITROANILINE] | -4.54 | 28.6 | 229 | -3.64 |  |  |
|  |  | Nc1cccc(Cl)c1 [3-CHLOROANILINE] | -4.44 | 36.7 | 261 | -3.58 |  |  |
|  |  | O=[N+]([O-])c1cccc(O)c1 [3-NITRO-PHENOL] | -4.77 | 17.1 | 69.4 | -4.16 |  |  |
|  |  | Nc1cccc([N+](=O)[O-])c1 [3-NITROANILINE] | -4.67 | 21.6 | 196 | -3.7 |  |  |
|  |  | N#Cc1ccc(O)cc1 [4-CYANOPHENOL] | -4.77 | 17 | 22.3 | -4.65 |  |  |
|  |  | CC(=O)Nc1ccc(O)cc1 [ACETAMINOPHEN] | -6.04 |  | 2.22 | -5.65 |  |  |
| 0.42 |  | CC(=O)N[C@@H](Cc1c[nH]c2ccccc12)C(N)=O [ACETYLTRYPTOPHANAMIDE] | -5.72 |  |  |  |  |  |
|  |  | Nc1ccccc1 [ANILINE] | -4.12 | 75.9 | 306 | -3.51 |  |  |
|  |  | Cc1cc(=O)n(-c2ccccc2)n1C [ANTIPYRINE] | -5.54 |  |  |  |  |  |
|  |  | CCNc1nc(Cl)nc(NC(C)C)n1 [ATRAZINE] | -4.53 | 29.2 | 72.1 | -4.14 | -4.39 | -4.45 |
|  |  | O=C(N[C@H](CO)[C@H](O)c1ccc([N+](=O)[O-])cc1)C(Cl)Cl [CHLORAMPHENICOL] |  |  | 5.75 |  |  |  |

| logP [2] | LogP app ([3]; PAMPA) | SMILES | LogP app [1] | Papp [1] [×10⁻⁶ cm/s] | Papp ([3]; PAMPA) [×10⁻⁶ cm/s] | LogP app ([3]; artificial membrane) | LogP app [4] | LogP app [5] |
| --- | --- | --- | --- | --- | --- | --- | --- | --- |
| 1.43 | -4.94 | Clc1cccc(Cl)c1N=C1NCCN1 [CLONIDINE] | -4.98 |  | 11.4 |  |  |  |
|  |  | C[C@]12C[C@H](O)[C@H]3[C@@H](CCC4=CC(=O)CC[C@@]43C)[C@@H]1CC[C@@H]2C(=O)CO [CORTICOSTERONE] | -4.77 |  | 34.2 | -4.47 |  |  |
| 2.01 |  | C[C@@H]1C[C@H]2[C@@H]3CCC4=CC(=O)C=C[C@]4(C)[C@@]3(F)[C@@H](O)C[C@]2(C)[C@@]1(O)C(=O)CO [DEXAMETHASONE] | -5.37 |  | 11.3 | -4.95 |  |  |
|  |  | CCOC(=O)c1ccccc1C(=O)OCC [DIETHYL PHTHALATE] | -4.82 | 15.1 |  |  |  |  |
|  |  | O=C(O)c1ccccc1Nc1ccccc1 [FENAMIC ACID] | -4.86 | 13.8 | 24.3 | -4.61 |  |  |
|  |  | CCC(C)c1ccccc1OC(=O)NC (stereo not given) [FENOBUCARB] | -4.91 | 12.4 | 131 | -3.88 |  |  |
|  |  | CC(C)(C)N(NC(=O)c1ccc(Cl)cc1)C(=O)c1ccccc1 [HALOFENOZIDE] | -4.76 | 17.2 |  |  |  |  |
|  | -5.34 | Oc1ccc(O)cc1 [HYDROQUINONE] | -5.14 | 7.31 | 4.6 |  |  |  |
|  |  | O=C(O)Cc1c[nH]c2ccccc12 [INDOLE-3-ACETIC ACID] | -6.4 |  |  |  |  |  |
|  |  | O=C(O)CCc1c[nH]c2ccccc12 [INDOLYLPROPIONIC ACID] | -5.68 |  |  |  |  |  |
|  |  | CC(CCc1ccccc1)NCC(O)c1ccc(O)c(C(N)=O)c1 (stereo not given) [LABETALOL] | -5.18 |  | 5.64 | -5.25 |  |  |
|  |  | COc1cccc(C(=O)NN(C(=O)c2cc(C)cc(C)c2)C(C)(C)C)c1C [METHOXYFENOZIDE] | -4.72 | 19.1 |  |  | -4.33 | -4.38 |
|  |  | O=[N+]([O-])c1ccccc1O [NITROPHENOLATE] | -4.24 | 57 | 216 | -3.36 |  |  |
| -1.03 | -6.74 | CCn1cc(C(=O)O)c(=O)c2cc(F)c(N3CCNCC3)cc21 [NORFLOXACIN] | -6.71 |  | 0.18 |  |  |  |
|  |  | Cc1ccccc1O [ORTHOCRESOL] | -4.28 | 52.1 | 295 | -3.53 |  |  |
| 2.1 | -5.03 | C=CCOc1ccccc1OCC(O)CNC(C)C (stereo not given) [OXPRENOLOL] | -4.83 |  | 9.36 |  |  |  |
| 2.26 |  | O=C1NC(=O)C(c2ccccc2)(c2ccccc2)N1 [PHENYTOIN] | -4.41 |  | 11.9 | -4.93 |  |  |
| 0.1 |  | CN1CCN(CC(=O)N2c3ccccc3C(=O)Nc3cccnc32)CC1 [PIRENZEPINE] | -6.05 |  | 0.82 | -6.09 |  |  |
|  |  | CC(=O)Nc1ccc(OCC(O)CNC(C)C)cc1 (stereo not given) [PRACTOLOL] | -5.98 |  | 0.37 | -6.43 |  |  |
|  | -5.52 | CNC(=C[N+](=O)[O-])NCCSCc1ccc(CN(C)C)o1 [RANITIDINE] | -6.05 |  | 3 |  |  |  |
|  |  | CC(C)(C)N(NC(=O)c1ccccc1)C(=O)c1ccccc1 [RH-5849] | -4.78 | 16.5 |  |  | -4.34 | -4.42 |
|  |  | COP1(=S)OCc2ccccc2O1 (stereo not given) [SALITHION] | -5.03 | 9.39 | 43.9 | -4.36 |  |  |
|  |  | CCc1ccc(C(=O)NN(C(=O)c2cc(C)cc(C)c2)C(C)(C)C)cc1 [TEBUFENOZIDE] | -4.8 | 15.7 |  |  | -4.44 | -4.39 |
|  |  | Cn1c(=O)c2[nH]cnc2n(C)c1=O.O [THEOPHYLLINE] | -5.31 |  |  |  |  |  |
|  |  | CCN(CC)C(=O)SCc1ccc(Cl)cc1 [THIOBENCARB] | -4.69 | 20.6 | 92.9 | -4.03 |  |  |
| 1.54 |  | OCCc1c[nH]c2ccccc12 [TRYPTOPHOL] | -4.72 |  |  |  |  |  |

| SMILES | logP [2] | LogP app ([3]; PAMPA) | LogP app [1] | Papp [1] [×10⁻⁶ cm/s] | Papp ([3]; PAMPA) [×10⁻⁶ cm/s] | LogP app ([3]; artificial membrane) | LogP app [4] | LogP app [5] |
| --- | --- | --- | --- | --- | --- | --- | --- | --- |
| O=[N+]([O-])c1cc(Cl)ccc1Cl | 3.03 |  | -5.11 | 7.78 | 80.7 | -4.09 |  |  |
| Nc1ccc(Cl)cc1 [4-CHLOROANILINE] | 1.88 |  | -4.38 | 41.8 | 258 | -3.59 |  |  |
| c1ccc(-c2ccccc2)cc1 [BIPHENYL] | 4.01 | -4.27 | -5.95 | 1.12 | 53.3 |  |  |  |
| Cc1cc(C)cc(C(=O)N(NC(=O)c2ccc3c(c2C)CCCO3)C(C)(C)C)c1 [CHROMAFENOZIDE] | 2.7 |  | -4.78 | 16.7 |  |  |  |  |
| COC(=O)c1ccccc1C(=O)OC [DIMETHYL PHTHALATE] | 1.56 |  | -4.36 | 43.3 | 158 | -3.8 |  |  |
| O=[N+]([O-])NC1=NCCN1Cc1ccc(Cl)nc1 [IMIDACLOPRID] | 0.59 |  | -5.34 | 4.52 | 5.21 | -5.31 |  |  |
| COc1nn(CSP(=S)(OC)OC)c(=O)s1 [METHIDATHION] | 2.5 |  | -4.97 | 10.8 | 46.9 | -4.33 |  | -4.42 |
| CC(C)(C)NCC(O)COc1cccc2c1C[C@H](O)[C@H](O)C2 (stereo not given in full) [NADOLOL] | 0.71 |  | -6.15 |  | 32.7 | -4.49 |  |  |
| Oc1ccccc1 [PHENOL] |  | -3.83 | -4.33 | 47 |  |  |  |  |
| CC(C)NCC(O)COc1cccc2[nH]ccc12 (stereo not given) [PINDOLOL] | 1.75 | -5.85 | -5.31 |  | 1.42 |  |  |  |
| NCCc1c[nH]c2ccccc12 [TRYPTAMINE] | 1.35 |  | -5.27 |  |  |  |  |  |
